Results: PubChem BioAssay AID1996
Values after ≈ are worked out from the molar mass of the structure shown.

Conditions: buffer; pH 7.4; 200.0 µM

Which solubility kinetic does the source give for `COc1ccc(NC(=O)c2cc(-c3cccs3)on2)cc1` here?
The solubility kinetic was 0.3 µg/mL (≈ 0.999 µM).

For `Cc1nn2c(-c3ccncc3)ccnc2c1Cl`, which solubility kinetic is on record?
The solubility kinetic was > 36.7 µg/mL.

For `CC1CC(=O)N(C)c2cc([N+](=O)[O-])ccc2N1` (centres undefined), which solubility kinetic is on record?
The solubility kinetic was > 35.3 µg/mL.

With `COc1cc(NC(=O)c2onc(C)c2Cl)cc(OC)c1OC` as the molecule, how does the solubility kinetic read?
Its solubility kinetic is 28.7 µg/mL (≈ 87.8 µM).

With `CCCNC(=O)c1ccc2c(c1)S(=O)(=O)c1ccccc1C2=O` as the molecule, how does the solubility kinetic read?
The solubility kinetic was 7.9 µg/mL (≈ 24 µM).

For `CCOc1ccc(N2C(=O)/C(=C/c3ccc(C)o3)C(=O)NC2=S)cc1`, which solubility kinetic is on record?
The solubility kinetic was > 53.5 µg/mL.

For `Cc1ccc(NC(=O)CNC(=O)c2ccco2)cc1Cl`, which solubility kinetic is on record?
Its solubility kinetic is 7 µg/mL (≈ 23.9 µM).

Which solubility kinetic does the source give for `COc1cccc(NC(=S)N2CCCN(Cc3ccc(F)cc3)C2)c1` here?
Its solubility kinetic is 49.8 µg/mL (≈ 139 µM).

With `CC1Cc2ccccc2N1CC(=O)Nc1cccc(S(N)(=O)=O)c1` (centres undefined) as the molecule, how does the solubility kinetic read?
The solubility kinetic was > 51.8 µg/mL.

With `CC(C)(C)/C(O)=C/c1nc2ccccc2oc1=O` as the molecule, how does the solubility kinetic read?
The solubility kinetic was 36.8 µg/mL (≈ 150 µM).

For `N#C/C(=C\c1ccc(O)c([N+](=O)[O-])c1)C(=O)NCc1ccccc1`, which solubility kinetic is on record?
Its solubility kinetic is 46.2 µg/mL (≈ 143 µM).

Which solubility kinetic does the source give for `O=C(NCc1cccc(C(F)(F)F)c1)c1ccc2c(c1)OCO2` here?
Its solubility kinetic is 34.8 µg/mL (≈ 108 µM).

For `NC(=O)c1ccccc1N1CCCCC1`, which solubility kinetic is on record?
The solubility kinetic was > 30.6 µg/mL.

With `N#C/C(C(N)=O)=C1/SC=C(c2ccccc2)N1c1ccccc1` as the molecule, how does the solubility kinetic read?
Its solubility kinetic is 0.4 µg/mL (≈ 1.25 µM).

With `CCOc1ccccc1/C=C/c1cc(C(=O)O)c2ccccc2n1` as the molecule, how does the solubility kinetic read?
The solubility kinetic was 45.8 µg/mL (≈ 143 µM).

With `CN(Cc1ccccc1)C(=O)CN1C(=O)c2ccc([N+](=O)[O-])cc2C1=O` as the molecule, how does the solubility kinetic read?
Its solubility kinetic is > 53 µg/mL.

With `COc1cc2c(cc1Cl)C(=O)C(F)(c1ccccc1)C(=O)N2` (centres undefined) as the molecule, how does the solubility kinetic read?
The solubility kinetic was 0.8 µg/mL (≈ 2.5 µM).

With `CCOC(=O)CNC(=O)CNC(=O)c1ccc(OC(C)C)cc1` as the molecule, how does the solubility kinetic read?
Its solubility kinetic is > 48.4 µg/mL.

Which solubility kinetic does the source give for `CC(OC(=O)c1cccc(N(C)C)c1)C(=O)N1CCc2ccccc2C1` (centres undefined) here?
Its solubility kinetic is 37.3 µg/mL (≈ 106 µM).

For `CC(NC(=O)c1cccs1)c1ccc(Br)cc1` (centres undefined), which solubility kinetic is on record?
Its solubility kinetic is 3.8 µg/mL (≈ 12.2 µM).

Which solubility kinetic does the source give for `CCOc1ccc(NS(=O)(=O)c2csc(C(N)=O)c2)cc1` here?
Its solubility kinetic is 46 µg/mL (≈ 141 µM).

With `Cc1[nH]c2ccccc2c1C(c1ccncc1)N1CCC(C)CC1` (centres undefined) as the molecule, how does the solubility kinetic read?
Its solubility kinetic is > 47.9 µg/mL.

With `Cc1cc(-c2nc(-c3ccncc3)no2)ccc1[N+](=O)[O-]` as the molecule, how does the solubility kinetic read?
The solubility kinetic was 1.8 µg/mL (≈ 6.38 µM).

For `CC1CC(=O)Nc2ccccc2N1C(=O)CSc1ccc2ccccc2n1` (centres undefined), which solubility kinetic is on record?
The solubility kinetic was > 56.6 µg/mL.

For `CNC(=O)c1cc2c(s1)-c1ccccc1CC2`, which solubility kinetic is on record?
Its solubility kinetic is 5.2 µg/mL (≈ 21.4 µM).

Which solubility kinetic does the source give for `CC(Sc1nc2ccccc2[nH]1)C(=O)NC1CCCCC1C` (centres undefined) here?
Its solubility kinetic is 14.5 µg/mL (≈ 45.7 µM).

Which solubility kinetic does the source give for `COc1ccc(CCC(=O)NC2CCC(C)CC2)cc1` (centres undefined) here?
Its solubility kinetic is 22.2 µg/mL (≈ 80.6 µM).

For `CCCN(CCO)C1CCN(CCc2ccccc2)CC1`, which solubility kinetic is on record?
The solubility kinetic was 27.4 µg/mL (≈ 94.3 µM).

Which solubility kinetic does the source give for `O=C(/C=C/c1ccccc1)OCCN1C(=O)c2ccccc2C1=O` here?
Its solubility kinetic is < 0.7 µg/mL.

For `COC(=O)c1c(NC(=O)c2ccccc2)sc(C(N)=O)c1C`, which solubility kinetic is on record?
Its solubility kinetic is 1.8 µg/mL (≈ 5.65 µM).

Which solubility kinetic does the source give for `Cc1ccc(OCCC(=O)Nc2ccc(C)c(F)c2)cc1` here?
Its solubility kinetic is 1.4 µg/mL (≈ 4.87 µM).

With `NS(=O)(=O)c1ccc(CCNS(=O)(=O)c2ccc(Cl)s2)cc1` as the molecule, how does the solubility kinetic read?
The solubility kinetic was > 57.1 µg/mL.

Which solubility kinetic does the source give for `CN(C)CC(C)(C)CNCc1cc(=O)oc2ccc3ccccc3c12` here?
Its solubility kinetic is > 50.8 µg/mL.

Which solubility kinetic does the source give for `Cc1ccc(-c2ccc(S(=O)(=O)NCC3CCCO3)cc2)cc1` (centres undefined) here?
Its solubility kinetic is 1.6 µg/mL (≈ 4.83 µM).

With `N#Cc1ccc(CN2CCN(C(=O)CNS(=O)(=O)c3ccc4c(c3)OCCCO4)CC2)cc1` as the molecule, how does the solubility kinetic read?
Its solubility kinetic is 35.3 µg/mL (≈ 75 µM).

For `CCN(CC)S(=O)(=O)c1ccc2oc(Nc3ccccc3)nc2c1`, which solubility kinetic is on record?
The solubility kinetic was 6.4 µg/mL (≈ 18.5 µM).

For `O=C(NNC(=O)C12CC3CC(CC(C3)C1)C2)c1ccccc1F`, which solubility kinetic is on record?
Its solubility kinetic is > 47.5 µg/mL.

With `O=C(O)C(Cc1c[nH]c2ccccc12)N1C(=O)c2ccccc2C1=O` (centres undefined) as the molecule, how does the solubility kinetic read?
Its solubility kinetic is 41.4 µg/mL (≈ 124 µM).

Which solubility kinetic does the source give for `Cl.Nc1cc(Cl)ccc1N1CCCCCC1` here?
The solubility kinetic was 12.4 µg/mL.

With `O=C(CN1CCCCCC1)Nc1ccc(Cl)cc1F` as the molecule, how does the solubility kinetic read?
The solubility kinetic was 28.1 µg/mL (≈ 98.7 µM).

For `COc1ccc(CCNC(=S)c2ccccc2)cc1OC`, which solubility kinetic is on record?
The solubility kinetic was > 45.2 µg/mL.

Which solubility kinetic does the source give for `S=C(c1c[nH]c2ccccc12)N1CCOCC1` here?
The solubility kinetic was > 36.9 µg/mL.

With `CCOC(=O)c1c[nH]c(=S)n1C` as the molecule, how does the solubility kinetic read?
Its solubility kinetic is > 27.9 µg/mL.

For `COC(=O)c1ccc(/C=C/C(=O)OCC(=O)Nc2sccc2C(N)=O)cc1`, which solubility kinetic is on record?
The solubility kinetic was 3.9 µg/mL (≈ 10 µM).

For `O=C(CCCc1nc(-c2ccc(Cl)cc2)no1)NC1CCCCC1`, which solubility kinetic is on record?
Its solubility kinetic is 2.1 µg/mL (≈ 6.04 µM).

With `CCN(CC(=O)Nc1ccc2c(c1)OCCO2)CC(=O)Nc1ccccc1C(F)(F)F.O=C(O)C(=O)O` as the molecule, how does the solubility kinetic read?
Its solubility kinetic is 47.7 µg/mL.

For `COc1ccc(N=C2NC(=O)C(CO)(CO)S2)cc1`, which solubility kinetic is on record?
The solubility kinetic was > 42.3 µg/mL.

With `O=C([O-])Cc1csc(-c2cccc(Oc3ccccc3)c2)n1.[Na+]` as the molecule, how does the solubility kinetic read?
Its solubility kinetic is 49.3 µg/mL.

Which solubility kinetic does the source give for `CCOC(=O)CCn1cc(F)c(=O)[nH]c1=O` here?
The solubility kinetic was > 34.5 µg/mL.

For `Cc1ccc(NC(=O)COC(=O)C2=COCCO2)c([N+](=O)[O-])c1`, which solubility kinetic is on record?
Its solubility kinetic is 6.6 µg/mL (≈ 20.5 µM).

For `Cc1ccc(CNC(=O)c2nccnc2C(=O)O)cc1`, which solubility kinetic is on record?
The solubility kinetic was > 40.7 µg/mL.

For `CCOC(=O)/C(=C\c1ccccc1)NC(=O)c1ccccc1`, which solubility kinetic is on record?
The solubility kinetic was > 44.3 µg/mL.

For `C[C@H](NC(=O)c1ccco1)C(=O)NC1CCCCCC1`, which solubility kinetic is on record?
Its solubility kinetic is > 41.8 µg/mL.

With `C=CC[n+]1ccc(/C=C2\C=Cc3cc(C)ccc3N2CC)c2ccccc21.[Br-]` as the molecule, how does the solubility kinetic read?
The solubility kinetic was > 53 µg/mL.

Which solubility kinetic does the source give for `O=C(COC(=O)/C=C/c1cccs1)NC1CC1` here?
The solubility kinetic was > 37.7 µg/mL.

For `N#Cc1ccccc1S(=O)(=O)Nc1ccc2c(c1)OCCO2`, which solubility kinetic is on record?
Its solubility kinetic is > 47.4 µg/mL.

For `Cc1ccc(CONC(=O)c2ccc(C)cc2)cc1`, which solubility kinetic is on record?
The solubility kinetic was 20.2 µg/mL (≈ 79.1 µM).

For `COC(=O)c1c(NC(=O)CCC(=O)O)sc(Cc2ccccc2)c1C`, which solubility kinetic is on record?
The solubility kinetic was 48.7 µg/mL (≈ 135 µM).

With `CN(C)c1ccc(C(=O)OCC(=O)NCCC2=CCCCC2)cc1` as the molecule, how does the solubility kinetic read?
Its solubility kinetic is 4.7 µg/mL (≈ 14.2 µM).
